Measurements published in article PMC8330742, “New benzothieno[2,3-c]pyridines as non-steroidal CYP17 inhibitors: design, synthesis, anticancer screening, apoptosis induction, and in silico ADME profile studies” (Journal of Enzyme Inhibition and Medicinal Chemistry, 2021).

Assays:
[1] = system: panel of 60 cancer cell lines; experiment: NCI-60 SRB screen, mean or range over the panel; assay type: cell-based, human; details: Homo sapiens; mean over the cell lines; single dose 10^−5 M; read-out: Mean growth inhibition (%)
HOP-62 = experiment: NCI-60 SRB screen; assay type: cell-based, human; details: Homo sapiens; HOP-62; single dose 10^−5 M; read-out: Growth inhibition (%)
SF-295 = experiment: NCI-60 SRB screen; assay type: cell-based, human; details: Homo sapiens; SF-295; single dose 10^−5 M; read-out: Growth inhibition (%)
UO-31 = experiment: NCI-60 SRB screen; assay type: cell-based, human; details: Homo sapiens; UO-31; single dose 10^−5 M; read-out: Growth inhibition (%)
UACC-62 = experiment: NCI-60 SRB screen; assay type: cell-based, human; details: Homo sapiens; UACC-62; single dose 10^−5 M; read-out: Growth inhibition (%)
SR = experiment: NCI-60 SRB screen; assay type: cell-based; details: Homo sapiens, single dose 10^−5 M, read-out: Growth inhibition (%)
NCI-H23 = experiment: NCI-60 SRB screen; assay type: cell-based, human; details: Homo sapiens; NCI-H23; single dose 10^−5 M; read-out: Growth inhibition (%)
CAKI-1 = experiment: NCI-60 SRB screen; assay type: cell-based, human; details: Homo sapiens; CAKI-1; single dose 10^−5 M; read-out: Growth inhibition (%)
OVCAR-4 = experiment: NCI-60 SRB screen; assay type: cell-based, human; details: Homo sapiens; OVCAR-4; single dose 10^−5 M; read-out: Growth inhibition (%)
COLO 205 = experiment: NCI-60 SRB screen; assay type: cell-based, human; details: Homo sapiens; COLO 205; single dose 10^−5 M; read-out: Growth inhibition (%)
NCI-H226 = experiment: NCI-60 SRB screen; assay type: cell-based, human; details: Homo sapiens; NCI-H226; single dose 10^−5 M; read-out: Growth inhibition (%)
HOP-92 = experiment: NCI-60 SRB screen; assay type: cell-based, human; details: Homo sapiens; HOP-92; single dose 10^−5 M; read-out: Growth inhibition (%)
786-0 = experiment: NCI-60 SRB screen; assay type: cell-based; details: Homo sapiens; 786-0; single dose 10^−5 M; read-out: Growth inhibition (%)
SW-620 = experiment: NCI-60 SRB screen; assay type: cell-based; details: Homo sapiens; SW-620; single dose 10^−5 M; read-out: Growth inhibition (%)
RXF 393 = experiment: NCI-60 SRB screen; assay type: cell-based, human; details: Homo sapiens; RXF 393; single dose 10^−5 M; read-out: Growth inhibition (%)
SK-MEL-2 = experiment: NCI-60 SRB screen; assay type: cell-based, human; details: Homo sapiens; SK-MEL-2; single dose 10^−5 M; read-out: Growth inhibition (%)
NCI-H522 = experiment: NCI-60 SRB screen; assay type: cell-based, human; details: Homo sapiens; NCI-H522; single dose 10^−5 M; read-out: Growth inhibition (%)
M14 = experiment: NCI-60 SRB screen; assay type: cell-based, human; details: Homo sapiens; M14; single dose 10^−5 M; read-out: Growth inhibition (%)
SF-268 = experiment: NCI-60 SRB screen; assay type: cell-based, human; details: Homo sapiens; SF-268; single dose 10^−5 M; read-out: Growth inhibition (%)
HCT-15 = experiment: NCI-60 SRB screen; assay type: cell-based, human; details: Homo sapiens; HCT-15; single dose 10^−5 M; read-out: Growth inhibition (%)
CCRF-CEM = experiment: NCI-60 SRB screen; assay type: cell-based; details: Homo sapiens, single dose 10^−5 M, read-out: Growth inhibition (%)
MOLT-4 = experiment: NCI-60 SRB screen; assay type: cell-based; details: Homo sapiens; MOLT-4; single dose 10^−5 M; read-out: Growth inhibition (%)
HCT-116 = experiment: NCI-60 SRB screen; assay type: cell-based, human; details: Homo sapiens; HCT-116; single dose 10^−5 M; read-out: Growth inhibition (%)
UACC-257 = experiment: NCI-60 SRB screen; assay type: cell-based, human; details: Homo sapiens, UACC-257; UACC-275 (so in the source); single dose 10^−5 M; read-out: Growth inhibition (%)
OVCAR-8 = experiment: NCI-60 SRB screen; assay type: cell-based, human; details: Homo sapiens; OVCAR-8; single dose 10^−5 M; read-out: Growth inhibition (%)
SN12C = experiment: NCI-60 SRB screen; assay type: cell-based, human; details: Homo sapiens, SN12C; SN 12 C; single dose 10^−5 M; read-out: Growth inhibition (%)
TK-10 = experiment: NCI-60 SRB screen; assay type: cell-based, human; details: Homo sapiens; TK-10; single dose 10^−5 M; read-out: Growth inhibition (%)
NCI-H322M = experiment: NCI-60 SRB screen; assay type: cell-based, human; details: Homo sapiens, single dose 10^−5 M, read-out: Growth inhibition (%)
HL-60(TB) = experiment: NCI-60 SRB screen; assay type: cell-based, human; details: Homo sapiens; HL-60 (TB); single dose 10^−5 M; read-out: Growth inhibition (%)
NCI-H460 = experiment: NCI-60 SRB screen; assay type: cell-based, human; details: Homo sapiens; NCI-H460; single dose 10^−5 M; read-out: Growth inhibition (%)
A549/ATCC = experiment: NCI-60 SRB screen; assay type: cell-based, human; details: Homo sapiens, single dose 10^−5 M, read-out: Growth inhibition (%)
SK-OV-3 = experiment: NCI-60 SRB screen; assay type: cell-based, human; details: Homo sapiens; SK-OV-3; single dose 10^−5 M; read-out: Growth inhibition (%)
SK-MEL-28 = experiment: NCI-60 SRB screen; assay type: cell-based; details: Homo sapiens; SK-MEL-28; single dose 10^−5 M; read-out: Growth inhibition (%)
OVCAR-3 = experiment: NCI-60 SRB screen; assay type: cell-based, human; details: Homo sapiens; OVCAR-3; single dose 10^−5 M; read-out: Growth inhibition (%)
MDA-MB-435 = experiment: NCI-60 SRB screen; assay type: cell-based; details: Homo sapiens, MDA-MB-435, read-out: Growth inhibition (%)
K-562 = experiment: NCI-60 SRB screen; assay type: cell-based, human; details: Homo sapiens, K562; K-562; single dose 10^−5 M; read-out: Growth inhibition (%)
NCI/ADR-RES = experiment: NCI-60 SRB screen; assay type: cell-based, human; details: Homo sapiens, single dose 10^−5 M, read-out: Growth inhibition (%)
LOX IMVI = experiment: NCI-60 SRB screen; assay type: cell-based, human; details: Homo sapiens, single dose 10^−5 M, read-out: Growth inhibition (%)
EKVX = experiment: NCI-60 SRB screen; assay type: cell-based, human; details: Homo sapiens, single dose 10^−5 M, read-out: Growth inhibition (%)
KM12 = experiment: NCI-60 SRB screen; assay type: cell-based, human; details: Homo sapiens; KM12; single dose 10^−5 M; read-out: Growth inhibition (%)
IGROV1 = experiment: NCI-60 SRB screen; assay type: cell-based, human; details: Homo sapiens, IGROV-1; IGROV1; single dose 10^−5 M; read-out: Growth inhibition (%)
SK-MEL-5 = experiment: NCI-60 SRB screen; assay type: cell-based, human; details: Homo sapiens; SK-MEL-5; single dose 10^−5 M; read-out: Growth inhibition (%)
ACHN = experiment: NCI-60 SRB screen; assay type: cell-based; details: Homo sapiens, single dose 10^−5 M, read-out: Growth inhibition (%)
HCC-2998 = experiment: NCI-60 SRB screen; assay type: cell-based, human; details: Homo sapiens; HCC-2998; single dose 10^−5 M; read-out: Growth inhibition (%)

`O=C1NC(c2cccc([N+](=O)[O-])c2)c2sc3c(F)cccc3c2C1N1CCCCC1` (stereo not shown) [Compound 6c, 8-Fluoro-1-(3-nitrophenyl)-4-(piperidin-1-yl)-1,2-dihydro[1]benzothieno [2,3-c]pyridin-3(4H)-one] showed an inhibition at 10 µM [1] of 2.54%, an inhibition at 10 µM (HOP-62) of 11.5% and an inhibition at 10 µM (SF-295) of 2.28%. For the same compound, the inhibition at 10 µM (UO-31) was 32.2%, the inhibition at 10 µM (UACC-62) was 4.85% and the inhibition at 10 µM (SR) was 0.3%. It also gave an inhibition at 10 µM (NCI-H23) of 5.16%, an inhibition at 10 µM (CAKI-1) of 17.6% and an inhibition at 10 µM (OVCAR-4) of -4.39%. It also gave an inhibition at 10 µM (COLO 205) of -12.7%, an inhibition at 10 µM (NCI-H226) of 8.71% and an inhibition at 10 µM (HOP-92) of 14.1%. The inhibition at 10 µM (786-0) was -6.36%, the inhibition at 10 µM (SW-620) was 7.46% and the inhibition at 10 µM (RXF 393) was 6.16%. For the same compound, the inhibition at 10 µM (SK-MEL-2) was -8.06%, the inhibition at 10 µM (NCI-H522) was 14% and the inhibition at 10 µM (M14) was 1.9%. For the same compound, the inhibition at 10 µM (SF-268) was 2.64%, the inhibition at 10 µM (HCT-15) was 3.74% and the inhibition at 10 µM (CCRF-CEM) was 1.84%. For the same compound, the inhibition at 10 µM (MOLT-4) was 8.91%, the inhibition at 10 µM (HCT-116) was 20.6% and the inhibition at 10 µM (UACC-257) was -6.77%. It also gave an inhibition at 10 µM (OVCAR-8) of 5%, an inhibition at 10 µM (SN12C) of 2.45% and an inhibition at 10 µM (TK-10) of -42.2%. It also gave an inhibition at 10 µM (NCI-H322M) of 2.6%, an inhibition at 10 µM (HL-60(TB)) of -17% and an inhibition at 10 µM (NCI-H460) of -0.58%. It also gave an inhibition at 10 µM (A549/ATCC) of -0.32%, an inhibition at 10 µM (SK-OV-3) of -0.84% and an inhibition at 10 µM (SK-MEL-28) of -12.4%. The inhibition at 10 µM (OVCAR-3) was -2.74%, the inhibition at 10 µM (MDA-MB-435) was -8.63% and the inhibition at 10 µM (K-562) was 6.11%. The inhibition at 10 µM (NCI/ADR-RES) was -1.66%, the inhibition at 10 µM (LOX IMVI) was 2.5% and the inhibition at 10 µM (EKVX) was 5.86%. It also gave an inhibition at 10 µM (KM12) of 2.91%, an inhibition at 10 µM (IGROV1) of 20.7% and an inhibition at 10 µM (SK-MEL-5) of 1.15%. It also gave an inhibition at 10 µM (ACHN) of 9.32% and an inhibition at 10 µM (HCC-2998) of 2.82%.
`O=[N+]([O-])c1cccc(C2NC(Cl)=C(Cl)c3c2sc2c(F)cccc32)c1` (stereo not shown) [Compound 7a, 3,4-Dichloro-8-fluoro-1-(3-nitrophenyl)-1,2-dihydro[1]benzothieno[2,3-c] pyridine] showed an inhibition at 10 µM [1] of 3.15%, an inhibition at 10 µM (HOP-62) of 15.5% and an inhibition at 10 µM (SF-295) of -2.06%. For the same compound, the inhibition at 10 µM (UO-31) was 30.2%, the inhibition at 10 µM (UACC-62) was 7.18% and the inhibition at 10 µM (SR) was 16.2%. It also gave an inhibition at 10 µM (NCI-H23) of 8.55%, an inhibition at 10 µM (CAKI-1) of 18.8% and an inhibition at 10 µM (OVCAR-4) of 3.16%. The inhibition at 10 µM (COLO 205) was -14.6%, the inhibition at 10 µM (NCI-H226) was 14.2% and the inhibition at 10 µM (HOP-92) was 14.7%. For the same compound, the inhibition at 10 µM (786-0) was -7.16%, the inhibition at 10 µM (SW-620) was 4.18% and the inhibition at 10 µM (RXF 393) was 7.81%. For the same compound, the inhibition at 10 µM (SK-MEL-2) was -5.95%, the inhibition at 10 µM (NCI-H522) was 12.7% and the inhibition at 10 µM (M14) was 4.95%. For the same compound, the inhibition at 10 µM (SF-268) was 5.16%, the inhibition at 10 µM (HCT-15) was -1.63% and the inhibition at 10 µM (CCRF-CEM) was 2.12%. For the same compound, the inhibition at 10 µM (MOLT-4) was 15.2%, the inhibition at 10 µM (HCT-116) was 13.4% and the inhibition at 10 µM (UACC-257) was -7.18%. For the same compound, the inhibition at 10 µM (OVCAR-8) was 1.9%, the inhibition at 10 µM (SN12C) was 2.54% and the inhibition at 10 µM (TK-10) was -37.2%. It also gave an inhibition at 10 µM (NCI-H322M) of -2.48%, an inhibition at 10 µM (HL-60(TB)) of -8.33% and an inhibition at 10 µM (NCI-H460) of 1.24%. It also gave an inhibition at 10 µM (A549/ATCC) of 2.3%, an inhibition at 10 µM (SK-OV-3) of 5.95% and an inhibition at 10 µM (SK-MEL-28) of -11.4%. It also gave an inhibition at 10 µM (OVCAR-3) of -3.96%, an inhibition at 10 µM (MDA-MB-435) of -9.15% and an inhibition at 10 µM (K-562) of 18%. The inhibition at 10 µM (NCI/ADR-RES) was -2.76%, the inhibition at 10 µM (LOX IMVI) was 1.24% and the inhibition at 10 µM (EKVX) was 7.1%. It also gave an inhibition at 10 µM (KM12) of 3.25%, an inhibition at 10 µM (IGROV1) of 10.7% and an inhibition at 10 µM (SK-MEL-5) of 1.94%. For the same compound, the inhibition at 10 µM (ACHN) was 6.96% and the inhibition at 10 µM (HCC-2998) was -16.1%.
